Source: article PMC11650737, “Developing MYC Degraders Bearing the Von Hippel–Lindau Ligand to Target the “Undruggable” MYC” (ACS Pharmacology & Translational Science, 2024)
Several values for one entry are separate records, joined by “and”; a condition that tells them apart may be missing. Equal entries are not always repeated.

What was measured:
[1] = system: SKBR3 cells; assay: Cell uptake / intracellular concentration by LC-MS/MS, SKBR3; format: in vitro ADME, human; conditions: SKBR3, 24 h incubation with 10 μM
Protocol: (§1) Therefore, in order to better comprehend the observed activities of our degraders, following incubation of each compound with cells, the intracellular concentrations of the synthesized derivatives were evaluated in different cancer cell lines, as described previously.[28],[29] SKBR3, PC3, or A549 cells were incubated with PROTACs (at a 10 μΜ concentration) for selected time points, respectively. Upon sample treatment, compounds were extracted and analyzed by LC-MS/MS. Table 1 presents the percentage of the molecule that enters the cells after 24 h incubation at the 10 μM concentration. […] The small molecule MYCi361, used as a binding domain component of MYC, was also evaluated in the cell uptake assay (Table 1).
Cells were plated in 24-well plates at a density of 2 × 10^5 cells/well. 24 h after seeding, cells were incubated with each PROTAC (10 μΜ) for certain time points (1 h, 4 h, 8 h, and 24 h). The incubations were terminated at the selected time points by removing the medium and washing the cells twice with 1 mL cold PBS (1×) in each well in order to remove unbound PROTAC. Subsequently, the cells were lysed by adding a cold solution of ACN:H2O (3:2) and scraping off the cell monolayer. This process was done in two steps: first, 200 μL of ACN:H2O was added, the cells were scraped, and the cell lysate was collected. The second step involved the addition of an extra 100 μL of ACN:H2O, scraping, and collection of the remaining lysate. Samples were subsequently vortexed, sonicated, and centrifuged for 10 min at 13 000 rpm. The supernatants were collected, evaporated for 1 h at 55 °C, and stored at −20 °C until the day of analysis. Samples were then reconstituted in 200 μL of initial mobile phase (100% A), and the intracellular accumulation of PROTACs was determined by LC-MS/MS analysis using Warfarin as a stable internal standard and PROTAC standards for the construction of analytical standard curves.
(§2) The percentage of cell uptake was calculated as follows: [drawing 1]

[2] = system: A549 cells; assay: Cell viability (MTT) assay, A549; format: cell-based, human; conditions: 72 h
Protocol: The antiproliferative activity of the synthesized compounds was tested in cell viability assays optimally set up for various cancer cell lines (results are depicted in Table 2, n = 3, average IC50 (μM) ± SD).
Cells were plated at a density of 5 × 10^3 cells per well on 96-well plates. After 24 h of incubation (37 °C, 5% CO2), the cell medium was removed, and compounds were added at selected concentrations (0.1–100 μM), followed by incubation for 72 h. Control cells were treated with 0.4% DMSO medium to match the conditions in the wells where drugs were added. After 72 h, the medium was removed, and the 3-(4,5-dimethylthiazol-2-yl)-2,5-diphenyltetrazolium bromide (MTT) solution (0.3 mg/mL in PBS) was added to cells for 3 h under no light conditions. The MTT solution was removed, and the formazan crystals were dissolved in 100 μL of DMSO. The optical density was measured at 570 nm with a reference wavelength of 690 nm using an absorbance microplate reader (SpectraMax 190, Molecular Devices, Sunnyvale, CA, USA). The half-maximal inhibitory concentration (IC50) was calculated based on a four-parameter logistic equation, generating a cell viability curve, using GraphPad Prism 6.01 (GraphPad Software, Inc.). […] The resulting absorbance values were used instead of IC50 calculation. […]

[3] = system: A549 cells; assay: Cell uptake / intracellular concentration by LC-MS/MS, A549; format: in vitro ADME, human; conditions: A549, 24 h incubation with 10 μM
Protocol: as §1
Cells were plated in 24-well plates at a density of 2 × 10^5 cells/well. 24 h after seeding, cells were incubated with each PROTAC (10 μΜ) for certain time points (1 h, 4 h, 8 h, and 24 h). […] Samples were then reconstituted in 200 μL of initial mobile phase (100% A), and the intracellular accumulation of PROTACs was determined by LC-MS/MS analysis using Warfarin as a stable internal standard and PROTAC standards for the construction of analytical standard curves.
as §2

Uptake by cells [1]: 26% and 26 ± 5%
intracellular concentration ([1]; corresponding to the uptake): 2.6 µM
IC50 (antiproliferative effect) [2]: inactive
Uptake by cells [3]: 10% and 10 ± 2%
Structure (SMILES): Cc1ncsc1-c1ccc(CNC(=O)[C@@H]2C[C@@H](O)CN2C(=O)[C@@H](NC(=O)CCC(=O)NCCCOc2ccc(-c3cc(C(F)(F)F)nn3C)c(O)c2-c2cc(C(F)(F)F)cc(C(F)(F)F)c2)C(C)(C)C)cc1 [CSI86]
